Columns and labels:
pigweed = assay: Test D postemergence; assay type: in vivo, Amaranthus retroflexus; settings: scale 0 to 100
Excerpt: (§1) Seeds of plant species selected from bluegrass (annual bluegrass, Poa annua), blackgrass (Alopecurus myosuroides), canarygrass (Phalaris minor), chickweed (common chickweed, Stellaria media), galium (catchweed bedstraw, Galium aparine), bromegrass, down (downy bromegrass, Bromus tectorum), Russian thistle (Salsola kali), field poppy (Papaver rhoeas), field violet (Viola arvensis), foxtail, green (green foxtail, Setaria viridis), deadnettle (henbit deadnettle, Lamium amplexicaule), ryegrass, Ital. (Italian ryegrass, Lolium multiflorum), kochia (Kochia scoparia), lambsquarters (Chenopodium album), oilseed rape (Brassica napus), pigweed (Amaranthus retroflexus), chamomile (scentless chamomile, Matricaria inodora), speedwell (bird's-eye speedwell, Veronica persica), barley, spring (spring barley, Hordeum vulgare), wheat, spring (spring wheat, Triticum aestivum), buckwheat, wild (wild buckwheat, Polygonum convolvulus), wild mustard (Sinapis arvensis), oat, wild (wild oat, Avena fatua), radish, wild (wild radish, Raphanus raphanistrum), […]), barley, winter (winter barley, Hordeum vulgare), and wheat, winter (winter wheat, Triticum aestivum) were planted into a silt loam soil and treated preemergence with test chemicals formulated in a non-phytotoxic solvent mixture which included a surfactant. At the same time, these species were planted in pots containing Sunshine Redi-Earth® planting medium comprising spaghnum peat moss, vermiculite, starter nutrients and dolomitic limestone and treated with postemergence applications of the test chemicals formulated in the same manner. Plants ranged in height from 2 to 18 cm (1- to 4-leaf stage). Treated plants and controls were maintained in a controlled growth environment for 14 to 21 d after which time all species were compared to controls and visually evaluated. […] A dash (-) response means no test result.

blackgrass [1] = assay: Test C preemergence; assay type: in vivo, Alopecurus myosuroides; settings: for Plant response rating (scale of 0 to 100 where 0 is no effect and 100 is complete control): Blackgrass, preemergence; for Blackgrass plant response rating (0 to 100): Preemergence, visual rating after 13 to 15 d
Excerpt: (§2) Seeds of plant species selected from blackgrass (Alopecurus myosuroides), ryegrass, Italian (Italian ryegrass, Lolium multiflorum), wheat (winter wheat, Triticum aestivum), galium (catchweed bedstraw, Galium aparine), corn (Zea mays), crabgrass, large (large crabgrass, Digitaria sanguinalis), foxtail, giant, (giant foxtail, Setaria faberii), johnsongrass (Sorghum halepense), lambsquarters (Chenopodium album), morningglory (Ipomoea coccinea), nutsedge, yellow (yellow nutsedge, Cyperus esculentus), pigweed (Amaranthus retroflexus), ragweed (common ragweed, Ambrosia elatior), soybean (Glycine max), barnyardgrass (Echinochloa crus-galli), oilseed rape (Brassica napus), waterhemp (common waterhemp, Amaranthus rudis), and velvetleaf (Abutilon theophrasti) were planted into a blend of loam soil and sand and treated preemergence with test chemicals formulated in a non-phytotoxic solvent mixture which included a surfactant. At the same time, plants selected from these crop and weed species and also chickweed (common chickweed, Stellaria media), oat, wild (wild oat, Avena fatua), and kochia (Kochia scoparia), were planted in pots containing Sunshine Redi-Earth® planting medium comprising spaghnum peat moss, vermiculite, starter nutrients and dolomitic limestone and treated with postemergence applications of test chemicals formulated in the same manner. Plants ranged in height from 2 to 18 cm (1- to 4-leaf stage) for postemergence treatments. […] A dash (-) response means no test result.

foxtail, green = assay: Test D postemergence; assay type: in vivo, Setaria viridis; settings: scale 0 to 100
Excerpt: as §1

waterhemp = assay: Test C preemergence; assay type: in vivo, Amaranthus rudis; settings: for Waterhemp plant response rating (0 to 100): Preemergence, visual rating after 13 to 15 d
Excerpt: as §2

radish, wild = assay: Test D postemergence; assay type: in vivo, Raphanus raphanistrum; settings: scale 0 to 100
Excerpt: as §1

deadnettle = assay: Test D postemergence; assay type: in vivo, Lamium amplexicaule; settings: scale 0 to 100
Excerpt: as §1

blackgrass [2] = assay: Test D preemergence; assay type: in vivo, Alopecurus myosuroides; settings: for Plant response rating (0 to 100), Blackgrass: 16 g ai/ha, 0 is no effect, 100 is complete control; for Plant response rating: Blackgrass: scale 0 to 100
Excerpt: as §1

kochia = assay: Test D preemergence; assay type: in vivo, Kochia scoparia; settings: for Plant response rating (0 to 100), Kochia: 16 g ai/ha, 0 is no effect, 100 is complete control; for Plant response rating: Kochia: scale 0 to 100
Excerpt: as §1

buckwheat, wild = assay: Test D postemergence; assay type: in vivo, Polygonum convolvulus; settings: scale 0 to 100
Excerpt: as §1

field violet = assay: Test D preemergence; assay type: in vivo, Viola arvensis; settings: for Plant response rating (0 to 100), Field Violet: 16 g ai/ha, 0 is no effect, 100 is complete control; for Plant response rating: Field Violet: scale 0 to 100
Excerpt: as §1

oat, wild = assay: Test D preemergence; assay type: in vivo, Avena fatua; settings: for Plant response rating (0 to 100), Oat, Wild: 16 g ai/ha, 0 is no effect, 100 is complete control; for Plant response rating: Oat, Wild: scale 0 to 100
Excerpt: as §1

canarygrass = assay: Test D preemergence; assay type: in vivo, Phalaris minor; settings: for Plant response rating (0 to 100), Canarygrass: 16 g ai/ha, 0 is no effect, 100 is complete control; for Plant response rating: Canarygrass: scale 0 to 100
Excerpt: as §1

soybean = assay: Test C preemergence; assay type: in vivo, Glycine max; settings: for Soybean plant response rating (0 to 100): Preemergence, visual rating after 13 to 15 d
Excerpt: as §2

Russian thistle = assay: Test D preemergence; assay type: in vivo, Salsola kali; settings: for Plant response rating (0 to 100), Russian Thistle: 16 g ai/ha, 0 is no effect, 100 is complete control; for Plant response rating: Russian Thistle: scale 0 to 100
Excerpt: as §1

field poppy = assay: Test D preemergence; assay type: in vivo, Papaver rhoeas; settings: for Plant response rating (0 to 100), Field Poppy: 16 g ai/ha, 0 is no effect, 100 is complete control; for Plant response rating: Field Poppy: scale 0 to 100
Excerpt: as §1

oilseed rape = assay: Test C preemergence; assay type: in vivo, Brassica napus; settings: for Plant response rating (scale of 0 to 100 where 0 is no effect and 100 is complete control): Oilseed Rape, preemergence; for Oilseed Rape plant response rating (0 to 100): Preemergence, visual rating after 13 to 15 d
Excerpt: as §2

## FC(F)(F)COc1nc(-c2ccccc2)nn1Cc1ccnc(C(F)(F)F)c1 [Compound 24]
pigweed; 16 g ai/ha
  Plant response rating: Pigweed: 95
pigweed; 31 g ai/ha
  Plant response rating: Pigweed: 100
pigweed; 62 g ai/ha
  Plant response rating: Pigweed: 100
pigweed; 125 g ai/ha
  Plant response rating: Pigweed: 100
Blackgrass [1]; 125 g ai/ha
  Plant response rating (scale of 0 to 100 where 0 is no effect and 100 is complete control): 90
Blackgrass [1]; 250 g ai/ha
  Plant response rating (scale of 0 to 100 where 0 is no effect and 100 is complete control): 90
Blackgrass [1]; 31 g ai/ha
  Blackgrass plant response rating (0 to 100): 10
Blackgrass [1]; 62 g ai/ha
  Blackgrass plant response rating (0 to 100): 60
foxtail, green; 16 g ai/ha
  Plant response rating: Foxtail, Green: 15
foxtail, green; 31 g ai/ha
  Plant response rating: Foxtail, Green: 25
foxtail, green; 62 g ai/ha
  Plant response rating: Foxtail, Green: 65
foxtail, green; 125 g ai/ha
  Plant response rating: Foxtail, Green: 65
waterhemp; 31 g ai/ha
  Waterhemp plant response rating (0 to 100): 100
waterhemp; 62 g ai/ha
  Waterhemp plant response rating (0 to 100): 100
waterhemp; Waterhemp, preemergence, 250 g ai/ha
  Plant response rating (scale of 0 to 100 where 0 is no effect and 100 is complete control): 100
radish, wild; 16 g ai/ha
  Plant response rating: Radish, Wild: 70
radish, wild; 31 g ai/ha
  Plant response rating: Radish, Wild: 95
radish, wild; 62 g ai/ha
  Plant response rating: Radish, Wild: 95
radish, wild; 125 g ai/ha
  Plant response rating: Radish, Wild: 95
deadnettle; 16 g ai/ha
  Plant response rating: Deadnettle: 40
deadnettle; 31 g ai/ha
  Plant response rating: Deadnettle: 60
deadnettle; 62 g ai/ha
  Plant response rating: Deadnettle: 70
deadnettle; 125 g ai/ha
  Plant response rating: Deadnettle: 85
Blackgrass [2]
  Plant response rating (0 to 100), Blackgrass: 20
Blackgrass [2]; 31 g ai/ha
  Plant response rating: Blackgrass: 45
Blackgrass [2]; 62 g ai/ha
  Plant response rating: Blackgrass: 50
Blackgrass [2]; 125 g ai/ha
  Plant response rating: Blackgrass: 65
kochia
  Plant response rating (0 to 100), Kochia: 85
kochia; 62 g ai/ha
  Plant response rating: Kochia: 90
kochia; 125 g ai/ha
  Plant response rating: Kochia: 90
buckwheat, wild; 16 g ai/ha
  Plant response rating: Buckwheat, Wild: 50
buckwheat, wild; 31 g ai/ha
  Plant response rating: Buckwheat, Wild: 55
buckwheat, wild; 62 g ai/ha
  Plant response rating: Buckwheat, Wild: 60
buckwheat, wild; 125 g ai/ha
  Plant response rating: Buckwheat, Wild: 70
Field violet
  Plant response rating (0 to 100), Field Violet: 0
Field violet; 62 g ai/ha
  Plant response rating: Field Violet: 80
Field violet; 125 g ai/ha
  Plant response rating: Field Violet: 100
oat, wild
  Plant response rating (0 to 100), Oat, Wild: 30
oat, wild; 62 g ai/ha
  Plant response rating: Oat, Wild: 30
oat, wild; 125 g ai/ha
  Plant response rating: Oat, Wild: 35
canarygrass
  Plant response rating (0 to 100), Canarygrass: 55
canarygrass; 31 g ai/ha
  Plant response rating: Canarygrass: 50
canarygrass; 62 g ai/ha
  Plant response rating: Canarygrass: 60
canarygrass; 125 g ai/ha
  Plant response rating: Canarygrass: 75
soybean; 31 g ai/ha
  Soybean plant response rating (0 to 100): 0
soybean; 62 g ai/ha
  Soybean plant response rating (0 to 100): 5
soybean; Soybean, preemergence, 250 g ai/ha
  Plant response rating (scale of 0 to 100 where 0 is no effect and 100 is complete control): 35
Russian thistle
  Plant response rating (0 to 100), Russian Thistle: 65
Russian thistle; 62 g ai/ha
  Plant response rating: Russian Thistle: 85
Russian thistle; 125 g ai/ha
  Plant response rating: Russian Thistle: 85
Field poppy
  Plant response rating (0 to 100), Field Poppy: 95
Field poppy; 62 g ai/ha
  Plant response rating: Field Poppy: 100
Field poppy; 125 g ai/ha
  Plant response rating: Field Poppy: 100
Oilseed rape; 125 g ai/ha
  Plant response rating (scale of 0 to 100 where 0 is no effect and 100 is complete control): 35
Oilseed rape; 250 g ai/ha
  Plant response rating (scale of 0 to 100 where 0 is no effect and 100 is complete control): 98
Oilseed rape; 31 g ai/ha
  Oilseed Rape plant response rating (0 to 100): 5
Oilseed rape; 62 g ai/ha
  Oilseed Rape plant response rating (0 to 100): 30

## COc1nc(-c2ccc(Cl)cc2)nn1Cc1ccnc(C(F)(F)F)c1 [Compound 28]
pigweed; 16 g ai/ha
  Plant response rating: Pigweed: 100
pigweed; 31 g ai/ha
  Plant response rating: Pigweed: 100
pigweed; 62 g ai/ha
  Plant response rating: Pigweed: 100
pigweed; 125 g ai/ha
  Plant response rating: Pigweed: 100
foxtail, green; 16 g ai/ha
  Plant response rating: Foxtail, Green: 25
foxtail, green; 31 g ai/ha
  Plant response rating: Foxtail, Green: 35
foxtail, green; 62 g ai/ha
  Plant response rating: Foxtail, Green: 60
foxtail, green; 125 g ai/ha
  Plant response rating: Foxtail, Green: 80
radish, wild; 16 g ai/ha
  Plant response rating: Radish, Wild: 85
radish, wild; 31 g ai/ha
  Plant response rating: Radish, Wild: 95
radish, wild; 62 g ai/ha
  Plant response rating: Radish, Wild: 95
radish, wild; 125 g ai/ha
  Plant response rating: Radish, Wild: 100
deadnettle; 16 g ai/ha
  Plant response rating: Deadnettle: 50
deadnettle; 31 g ai/ha
  Plant response rating: Deadnettle: 60
deadnettle; 62 g ai/ha
  Plant response rating: Deadnettle: 70
deadnettle; 125 g ai/ha
  Plant response rating: Deadnettle: 75
Blackgrass [2]
  Plant response rating (0 to 100), Blackgrass: 30
Blackgrass [2]; 31 g ai/ha
  Plant response rating: Blackgrass: 30
Blackgrass [2]; 62 g ai/ha
  Plant response rating: Blackgrass: 50
Blackgrass [2]; 125 g ai/ha
  Plant response rating: Blackgrass: 50
kochia
  Plant response rating (0 to 100), Kochia: 85
kochia; 62 g ai/ha
  Plant response rating: Kochia: 85
kochia; 125 g ai/ha
  Plant response rating: Kochia: 95
buckwheat, wild; 16 g ai/ha
  Plant response rating: Buckwheat, Wild: 60
buckwheat, wild; 31 g ai/ha
  Plant response rating: Buckwheat, Wild: 65
buckwheat, wild; 62 g ai/ha
  Plant response rating: Buckwheat, Wild: 75
buckwheat, wild; 125 g ai/ha
  Plant response rating: Buckwheat, Wild: 95
Field violet
  Plant response rating (0 to 100), Field Violet: 65
Field violet; 62 g ai/ha
  Plant response rating: Field Violet: 95
Field violet; 125 g ai/ha
  Plant response rating: Field Violet: 100
oat, wild
  Plant response rating (0 to 100), Oat, Wild: 35
oat, wild; 62 g ai/ha
  Plant response rating: Oat, Wild: 30
oat, wild; 125 g ai/ha
  Plant response rating: Oat, Wild: 35
canarygrass
  Plant response rating (0 to 100), Canarygrass: 10
canarygrass; 31 g ai/ha
  Plant response rating: Canarygrass: 40
canarygrass; 62 g ai/ha
  Plant response rating: Canarygrass: 60
canarygrass; 125 g ai/ha
  Plant response rating: Canarygrass: 65
Russian thistle
  Plant response rating (0 to 100), Russian Thistle: 70
Russian thistle; 62 g ai/ha
  Plant response rating: Russian Thistle: 85
Russian thistle; 125 g ai/ha
  Plant response rating: Russian Thistle: 85
Field poppy
  Plant response rating (0 to 100), Field Poppy: 70
Field poppy; 62 g ai/ha
  Plant response rating: Field Poppy: 100
Field poppy; 125 g ai/ha
  Plant response rating: Field Poppy: 100

Source: US10681909B2, “Herbicidal triazoles” (FMC Corporation, priority 2014, dated 2020)
